From PubChem BioAssay (NCI)
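Grown in 96-well plates, cells were treated for 48 hours with each compound at five concentrations. Insufficient inhibition: endpoint recorded as highest concentration tested. GI50 = concentration required for 50% inhibition of growth. TGI: concentration producing complete growth inhibition.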

Experiments:
Assay in all cases: NCI tumour cell line growth inhibition, 48 h
CAKI-1 renal = tested on: CAKI-1 renal
IGROV1 ovarian = tested on: IGROV1 ovarian
NCI-H460 lung = tested on: NCI-H460 lung
PC-3 prostate = tested on: PC-3 prostate
RPMI-8226 leukemia = tested on: RPMI-8226 leukemia
SF-268 CNS = tested on: SF-268 CNS
SK-MEL-2 melanoma = tested on: SK-MEL-2 melanoma
SK-MEL-28 melanoma = tested on: SK-MEL-28 melanoma
SNB-19 CNS = tested on: SNB-19 CNS
TK-10 renal = tested on: TK-10 renal

Row | Compound | GI50 (CAKI-1 renal) | TGI (CAKI-1 renal) | GI50 (IGROV1 ovarian) | TGI (IGROV1 ovarian) | GI50 (NCI-H460 lung) | TGI (NCI-H460 lung) | GI50 (PC-3 prostate) | TGI (PC-3 prostate) | GI50 (RPMI-8226 leukemia) | TGI (RPMI-8226 leukemia) | GI50 (SF-268 CNS) | TGI (SF-268 CNS) | GI50 (SK-MEL-2 melanoma) | TGI (SK-MEL-2 melanoma) | GI50 (SK-MEL-28 melanoma) | TGI (SK-MEL-28 melanoma) | GI50 (SNB-19 CNS) | TGI (SNB-19 CNS) | GI50 (TK-10 renal) | TGI (TK-10 renal)
1 | CN1CCN(Cc2ccc(NC(=O)c3[nH]ncc3Nc3cc(OC4CCCC4)ncn3)cc2)CC1 | 0.366 µM | 9.11 µM | 1.75 µM | 10.8 µM | 1.61 µM | 5.97 µM | 2.26 µM | 11.1 µM | 2.94 µM | 6.71 µM | 4.48 µM | 19 µM | 3.75 µM | 15.3 µM | 1.78 µM | 3.87 µM | 4.74 µM | 15.7 µM | 11 µM | 23.7 µM
2 | CN1C(=O)C(C)(C)Oc2c(-c3cn(C)c(=O)c4[nH]ccc34)cc(S(C)(=O)=O)cc21 | 0.271 µM | 16.1 µM | 0.89 µM | > 100 µM | 2.29 µM | > 100 µM | 2.01 µM | > 100 µM | 0.243 µM | 4.94 µM | 3.99 µM | > 100 µM | 1.95 µM | > 100 µM | 3.92 µM | > 100 µM | 1.6 µM | > 100 µM | 0.495 µM | 14.6 µM
3 | CC(C)Cn1cnc2c(SCc3ccccn3)nc(N)nc21 | – | > 100 µM | – | > 100 µM | – | > 100 µM | – | > 100 µM | – | > 100 µM | – | > 100 µM | – | > 100 µM | – | > 100 µM | – | > 100 µM | – | > 100 µM
4 | CSc1nc(-c2cccc(NC(=O)CCl)c2)c(C#N)c(=O)n1C | 1.68 µM | 3.07 µM | 0.248 µM | 1.41 µM | 3.16 µM | 11.1 µM | 2.4 µM | 8.12 µM | 1.75 µM | 4.88 µM | – | – | 2.17 µM | 7.08 µM | 2.85 µM | 9.58 µM | 1.63 µM | 3.29 µM | 2.38 µM | 5.53 µM
5 | C[C@H](c1ccc(Cl)cc1[N+](=O)[O-])N1C(=O)c2cc(I)ccc2NC(=O)[C@H]1c1ccc(Cl)cc1 | 4.2 µM | > 100 µM | 8.21 µM | > 100 µM | 6.61 µM | > 100 µM | 4.86 µM | > 100 µM | > 100 µM | > 100 µM | > 100 µM | > 100 µM | > 100 µM | > 100 µM | > 100 µM | > 100 µM | > 100 µM | > 100 µM | > 100 µM | > 100 µM
6 | CNCC1CCn2c(c(C3=C(c4cn(C)c5ccccc45)C(=O)NC3=O)c3ccccc32)C1 (centres undefined) | 3.68 µM | 9.28 µM | 4.14 µM | 9.9 µM | 2.91 µM | 6.55 µM | 2.39 µM | 8.79 µM | 3.85 µM | 9.86 µM | 4.17 µM | 8.97 µM | 3.33 µM | 7.07 µM | 3.78 µM | 7.28 µM | 4.58 µM | 16.3 µM | 2.78 µM | 6.34 µM
7 | CC(=O)Nc1cc(CN2CCCCC2)c(O)c2ncccc12 | – | > 100 µM | – | > 100 µM | – | 36.9 µM | – | 81 µM | – | 51.1 µM | – | 79.2 µM | – | 23 µM | – | > 100 µM | – | > 100 µM | – | > 100 µM
8 | COc1ccc(-c2cc3c(N)ncnc3o2)cc1 | 17.6 µM | > 25 µM | 24.3 µM | > 25 µM | > 25 µM | > 25 µM | > 25 µM | > 25 µM | > 25 µM | > 25 µM | 21.3 µM | > 25 µM | > 25 µM | > 25 µM | > 25 µM | > 25 µM | > 25 µM | > 25 µM | 9.44 µM | > 25 µM
9 | Nc1nc(N)c(-c2ccc(Cl)cc2)c(/C=C/c2ccc([N+](=O)[O-])cc2)n1 | 4.92 µM | > 100 µM | 5.35 µM | 52.9 µM | 3.4 µM | > 100 µM | 3.9 µM | > 100 µM | 5.8 µM | > 100 µM | 8.32 µM | 93.9 µM | 18.6 µM | 67.2 µM | 26.6 µM | > 100 µM | 16.1 µM | > 100 µM | – | –
10 | C=C1C(OCCO)OC2O[C@]3(C)CCC4[C@H](C)CCC1C24OO3 (some centres undefined) | 19 µM | 40.5 µM | 12.3 µM | 34.9 µM | > 100 µM | > 100 µM | 4.11 µM | > 100 µM | 0.591 µM | 16.5 µM | 43.4 µM | > 100 µM | 71.1 µM | > 100 µM | > 100 µM | > 100 µM | > 100 µM | > 100 µM | – | –
11 | COc1ccc(OC)c(/C=C/C(=O)c2ccc3cc(OC)ccc3c2)c1 | 1.2 µM | 10.6 µM | – | > 14.5 µM | 10.3 µM | > 50 µM | 6.71 µM | > 50 µM | 4.53 µM | > 37.8 µM | > 14.3 µM | > 50 µM | > 14.9 µM | > 50 µM | 3.74 µM | > 50 µM | – | > 17.2 µM | 3.84 µM | > 50 µM
12 | COn1cc(C(=O)N=C(SC)SC)c2ccccc21 | 22.7 µM | 63.8 µM | 11.8 µM | 55.5 µM | > 100 µM | > 100 µM | 25.1 µM | > 100 µM | 17.9 µM | > 100 µM | > 100 µM | > 100 µM | 17.6 µM | 52 µM | 80 µM | > 100 µM | 40.2 µM | > 100 µM | – | –
13 | Cn1c(=O)c2[nH]cnc2n(C)c1=O.[CH2-]C(Cc1cccc2cc(C(=O)O)c(=O)oc12)OC.[Hg+2].[OH-] (centres undefined) | 18 µM | 32 µM | 17.3 µM | 31.4 µM | – | – | 18 µM | 31.8 µM | 18.2 µM | 65.1 µM | 16.9 µM | 30.6 µM | 17.4 µM | 31.5 µM | 19.1 µM | 33.5 µM | 17.7 µM | 31.6 µM | 19.3 µM | 33.4 µM
14 | COc1ccc2c(c1)NC(=O)CN2c1nc(C)nc2ccccc12 | 0.000497 µM | > 100 µM | 0.000829 µM | 74.9 µM | 0.000397 µM | > 100 µM | 0.000636 µM | > 100 µM | 0.000603 µM | > 100 µM | 0.000788 µM | > 100 µM | – | > 100 µM | – | – | 0.000655 µM | > 100 µM | – | > 100 µM
